Experimental data from patent publication US10336739B2, “4-hydroxy-3-(heteroaryl)pyridine-2-one APJ agonists” (BRISTOL-MYERS SQUIBB COMPANY, priority 2015, dated 2019).

target: human APJ receptor (Homo sapiens (Human), UniProt P35414); assay: Intracellular cAMP accumulation assay (APJ hcAMP, HTRF); assay type: cell-based; settings: HEK293 cells stably expressing human APJ receptor; inhibition of forskolin-mediated cAMP production; read-out: hAPJ cAMP EC50 Potency range
How it was run: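 cAMP inhibition was quantified by HTRF against a cAMP standard curve, with EC50 fitted to a variable-slope sigmoidal curve. Compounds acted on 5,000 APJ-stable HEK293 cells for 30 minutes at room temperature alongside 2 μM forskolin and […] IBMX. Detection reagents were incubated 60 min.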

Sequence of human APJ receptor (P35414 whole entry): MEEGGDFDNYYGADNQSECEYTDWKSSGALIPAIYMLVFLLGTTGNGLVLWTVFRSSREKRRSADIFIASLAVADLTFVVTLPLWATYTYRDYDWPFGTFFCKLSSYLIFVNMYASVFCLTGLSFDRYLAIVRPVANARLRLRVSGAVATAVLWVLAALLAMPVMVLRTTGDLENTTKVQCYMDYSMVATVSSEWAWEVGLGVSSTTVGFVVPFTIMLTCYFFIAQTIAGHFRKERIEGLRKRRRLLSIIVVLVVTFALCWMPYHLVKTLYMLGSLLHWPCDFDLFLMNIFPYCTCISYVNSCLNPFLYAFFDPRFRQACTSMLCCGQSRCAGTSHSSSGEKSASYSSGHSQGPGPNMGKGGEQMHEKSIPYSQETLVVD

Compound | EC50 [nM]
CCOCc1nc(O)c(-c2nnc(Cc3ccc(Cl)cc3)o2)c(O)c1-c1c(OC)cccc1OC [Example 90, 3-{5-[(4-chlorophenyl)methyl]-1,3,4-oxadiazol-2-yl}-5-(2,6-dimethoxyphenyl)-6-(ethoxymethyl) pyridine-2,4-diol] | 0.01 to 10
CCCCc1nc(O)c(-c2nnc(Cc3nc(-c4ccccc4)oc3C)o2)c(O)c1-c1c(OC)cccc1OC [Example 91, 6-butyl-5-(2,6-dimethoxyphenyl)-3-{5-[(5-methyl-2-phenyl-1,3-oxazol-4-yl)methyl]-1,3,4-oxadiazol-2-yl}pyridine-2,4-diol] | 0.01 to 10
COc1cccc(OC)c1-c1c(C2CC2)[nH]c(=O)c(-c2nnc(Cc3ccc(Cl)cc3)o2)c1O [Example 93, 3-{5-[(4-chlorophenyl)methyl]-1,3,4-oxadiazol-2-yl}-6-cyclopropyl-5-(2,6-dimethoxyphenyl) pyridine-2,4-diol] | 10 to 100
COc1cccc(OC)c1-c1c(C2CC2)nc(O)c(-c2nnc(Cc3csc(C)n3)o2)c1O [Example 94, 6-cyclopropyl-5-(2,6-dimethoxyphenyl) 3-{5-[(2-methyl-1,3-thiazol-4-yl)methyl]-1,3,4-oxadiazol-2-yl}pyridine-2,4-diol] | 10 to 100
COc1cccc(OC)c1-c1c(C2CC2)nc(O)c(-c2nnc(Cc3nc(-c4ccccn4)no3)o2)c1O [Example 95, 6-cyclopropyl-5-(2,6-dimethoxyphenyl)-3-(5-{[3-(pyridin-2-yl)-1,2,4-oxadiazol-5-yl]methyl}-1,3,4-oxadiazol-2-yl)pyridine-2,4-diol] | 0.01 to 10
CCCCc1nc(O)c(-c2nnc(CC(=O)OCC)o2)c(O)c1-c1c(OC)cccc1OC [Example 96, ethyl 2-{5-[6-butyl-5-(2,6-dimethoxyphenyl)-2,4-dihydroxypyridin-3-yl]-1,3,4-oxadiazol-2-yl}acetate] | 10 to 100
CCCCc1nc(O)c(-c2nnc(CN3CCCCC3)o2)c(O)c1-c1c(OC)cccc1OC [Example 100, 6-butyl-5-(2,6-dimethoxyphenyl)-3-[5-(piperidin-1-ylmethyl)-1,3,4-oxadiazol-2-yl]pyridine-2,4-diol] | 10 to 100
CCCCc1nc(O)c(-c2nnc(Cc3nc(-c4cccnc4)no3)o2)c(O)c1-c1c(OC)cccc1OC [Example 101, 6-butyl-5-(2,6-dimethoxyphenyl)-3-(5-{[3-(pyridin-3-yl)-1,2,4-oxadiazol-5-yl]methyl}-1,3,4-oxadiazol-2-yl)pyridine-2,4-diol] | 0.01 to 10
CCCCc1nc(O)c(-c2nnc(Cc3ccc(Cl)cc3F)o2)c(O)c1-c1c(OC)cccc1OC [Example 103, 6-butyl-3-{5-[(4-chloro-2-fluorophenyl)methyl]-1,3,4-oxadiazol-2-yl}-5-(2,6-dimethoxyphenyl) pyridine-2,4-diol] | 0.01 to 10
CCCCc1nc(O)c(-c2nnc(Cc3nc(-c4ccncc4)no3)o2)c(O)c1-c1c(OC)cccc1OC [Example 104, 6-butyl-5-(2,6-dimethoxyphenyl)-3-(5-{[3-(pyridin-4-yl)-1,2,4-oxadiazol-5-yl]methyl}-1,3,4-oxadiazol-2-yl)pyridine-2,4-diol] | 0.01 to 10
CCCCc1nc(O)c(-c2nnc(CN3CCCC3=O)o2)c(O)c1-c1c(OC)cccc1OC [Example 105, 1-({5-[6-butyl-5-(2,6-dimethoxyphenyl)-2,4-dihydroxypyridin-3-yl]-1,3,4-oxadiazol-2-yl}methyl) pyrrolidin-2-one] | 0.01 to 10
CCOCc1nc(O)c(-c2nnc(Cc3noc(-c4ccccn4)n3)o2)c(O)c1-c1c(OC)cccc1OC [Example 107, 5-(2,6-dimethoxyphenyl)-6-(ethoxymethyl)-3-(5-{[5-(pyridin-2-yl)-1,2,4-oxadiazol-3-yl]methyl}-1,3,4-oxadiazol-2-yl)pyridine-2,4-diol] | 0.01 to 10
CCCCc1nc(O)c(-c2nnc(Cc3nc(-c4ccccc4)no3)o2)c(O)c1-c1c(OC)cccc1OC [Example 111, 6-butyl-5-(2,6-dimethoxyphenyl)-3-{5-[(3-phenyl-1,2,4-oxadiazol-5-yl)methyl]-1,3,4-oxadiazol-2-yl}pyridine-2,4-diol] | 0.01 to 10
CCOCc1nc(O)c(-c2nnc(CN3CCCC3=O)o2)c(O)c1-c1c(OC)cccc1OC [Example 112, 1-({5-[5-(2,6-dimethoxyphenyl)-6-(ethoxymethyl)-2,4-dihydroxypyridin-3-yl]-1,3,4-oxadiazol-2-yl}methyl) pyrrolidin-2-one] | 0.01 to 10
CCCCc1nc(O)c(-c2nnc(Cn3ccccc3=O)o2)c(O)c1-c1c(OC)cccc1OC [Example 114, 1-({5-[6-butyl-5-(2,6-dimethoxyphenyl)-2,4-dihydroxypyridin-3-yl]-1,3,4-oxadiazol-2-yl}methyl)-1,2-dihydropyridin-2-one] | 0.01 to 10
CCCCc1nc(O)c(-c2nnc(CNC(=O)OC(C)(C)C)o2)c(O)c1-c1c(OC)cccc1OC [Example 120, tert-butyl N-({5-[6-butyl-5-(2,6-dimethoxyphenyl)-2,4-dihydroxypyridin-3-yl]-1,3,4-oxadiazol-2-yl}methyl) carbamate] | 10 to 100

More lines, now with the values ahead:

EC50 [nM] | Compound
10 to 100 | COc1cccc(OC)c1-c1c(C2CC2)nc(O)c(-c2nnc(Cc3noc4ccccc34)o2)c1O [Example 92, 3-[5-(1,2-benzoxazol-3-ylmethyl)-1,3,4-oxadiazol-2-yl]-6-cyclopropyl-5-(2,6-dimethoxyphenyl) pyridine-2,4-diol]
0.01 to 10 | CCCCc1nc(O)c(-c2nnc(CN3C(=O)CN(C)C3=O)o2)c(O)c1-c1c(OC)cccc1OC [Example 98, 3-({5-[6-butyl-5-(2,6-dimethoxyphenyl)-2,4-dihydroxypyridin-3-yl]-1,3,4-oxadiazol-2-yl}methyl)-1-methyl-imidazolidine-2,4-dione]
0.01 to 10 | CCCCc1nc(O)c(-c2nnc(Cc3cccc(F)c3)o2)c(O)c1-c1c(OC)cccc1OC [Example 99, 6-butyl-5-(2,6-dimethoxyphenyl)-3-{5-[(3-fluorophenyl)methyl]-1,3,4-oxadiazol-2-yl}pyridine-2,4-diol]
100 to 300 | CCCCc1nc(O)c(-c2nnc(Cc3cnn(C)c3)o2)c(O)c1-c1c(OC)cccc1OC [Example 102, 6-butyl-5-(2,6-dimethoxyphenyl)-3-{5-[(1-methyl-1H-pyrazol-4-yl)methyl]-1,3,4-oxadiazol-2-yl}pyridine-2,4-diol]
0.01 to 10 | CCOCc1nc(O)c(-c2nnc(Cc3csc(C)n3)o2)c(O)c1-c1c(OC)cccc1OC [Example 106, 5-(2,6-dimethoxyphenyl)-6-(ethoxymethyl)-3-{5-[(2-methyl-1,3-thiazol-4-yl)methyl]-1,3,4-oxadiazol-2-yl}pyridine-2,4-diol]
0.01 to 10 | CCCCc1nc(O)c(-c2nnc(Cc3nc(Cc4ccccc4)no3)o2)c(O)c1-c1c(OC)cccc1OC [Example 108, 3-{5-[(3-benzyl-1,2,4-oxadiazol-5-yl)methyl]-1,3,4-oxadiazol-2-yl}-6-butyl-5-(2,6-dimethoxyphenyl) pyridine-2,4-diol]
0.01 to 10 | CCCCc1nc(O)c(-c2nnc(Cc3nc(C4CC4)no3)o2)c(O)c1-c1c(OC)cccc1OC [Example 109, 6-butyl-3-{5-[(3-cyclopropyl-1,2,4-oxadiazol-5-yl)methyl]-1,3,4-oxadiazol-2-yl}-5-(2,6-dimethoxyphenyl) pyridine-2,4-diol]
0.01 to 10 | CCOCc1[nH]c(=O)c(-c2nnc(Cc3ccc(Cl)nc3)o2)c(O)c1-c1c(OC)cccc1OC [Example 110, 3-{5-[(6-chloropyridin-3-yl)methyl]-1,3,4-oxadiazol-2-yl}-5-(2,6-dimethoxyphenyl)-6-(ethoxymethyl) pyridine-2,4-diol]
10 to 100 | CCCCc1nc(O)c(-c2nnc(CN3C(=O)CNC3=O)o2)c(O)c1-c1c(OC)cccc1OC [Example 113, 3-({5-[6-butyl-5-(2,6-dimethoxyphenyl)-2,4-dihydroxypyridin-3-yl]-1,3,4-oxadiazol-2-yl}methyl) imidazolidine-2,4-dione]
10 to 100 | CCCCc1nc(O)c(-c2nnc(Cn3ccnc3)o2)c(O)c1-c1c(OC)cccc1OC [Example 115, 6-butyl-5-(2,6-dimethoxyphenyl)-3-[5-(1H-imidazol-1-ylmethyl)-1,3,4-oxadiazol-2-yl]pyridine-2,4-diol]
0.01 to 10 | CCCCc1nc(O)c(-c2nnc(CN3CCOCC3=O)o2)c(O)c1-c1c(OC)cccc1OC [Example 117, 4-({5-[6-butyl-5-(2,6-dimethoxyphenyl)-2,4-dihydroxypyridin-3-yl]-1,3,4-oxadiazol-2-yl}methyl) morpholin-3-one]
0.01 to 10 | CCCCc1nc(O)c(-c2nnc(CC(=O)OC(C)(C)C)o2)c(O)c1-c1c(OC)cccc1OC [Example 118, tert-butyl 2-{5-[6-butyl-5-(2,6-dimethoxyphenyl)-2,4-dihydroxypyridin-3-yl]-1,3,4-oxadiazol-2-yl}acetate]
0.01 to 10 | CCOCc1nc(O)c(-c2nnc(Cn3ccccc3=O)o2)c(O)c1-c1c(OC)cccc1OC [Example 119, 1-({5-[5-(2,6-dimethoxyphenyl)-6-(ethoxymethyl)-2,4-dihydroxypyridin-3-yl]-1,3,4-oxadiazol-2-yl}methyl)-1,2-dihydropyridin-2-one]

same assay, conditions: hAPJ cAMP EC50 Potency range (nM), HEK293 cells stably expressing human APJ receptor; inhibition of forskolin-mediated cAMP production

Compound | EC50 [nM]
CCCCc1nc(O)c(-c2nnc(CN3CCOC3=O)o2)c(O)c1-c1c(OC)cccc1OC [Example 116, 3-({5-[6-butyl-5-(2,6-dimethoxyphenyl)-2,4-dihydroxypyridin-3-yl]-1,3,4-oxadiazol-2-yl}methyl)-1,3-oxazolidin-2-one] | 0.01 to 10
CCCCc1nc(O)c(-c2nnc(CN(C)C(=O)OC(C)(C)C)o2)c(O)c1-c1c(OC)cccc1OC [Example 121, tert-butyl N-({5-[6-butyl-5-(2,6-dimethoxyphenyl)-2,4-dihydroxypyridin-3-yl]-1,3,4-oxadiazol-2-yl}methyl)-N-methylcarbamate] | 10 to 100
